Measured values as given in US20110065581A1, “Liquid Compositions Containing S-(+)-Abscisic Acid in Combination with Selected Lipophilic Agents and Methods of their Preparation” (priority 2007, published 2011).
Counter-ions that a name gives are not always drawn.

Columns and labels:
[1] = cited from earlier work
Rutgers Tomato = test: Relative suppression effect of selective S-(+)-ABA formulations on Rutgers Tomato (regression); format: in vivo; conditions: treatment at 100 ppm
Description: (§1) Seedlings of Rutgers Tomato were sprayed with 4 ml water or treatment solution at the 3-4 leaf stage and held under well watered conditions in a greenhouse. Transpiration was measured daily for 3 days after treatment with a LiCor 1600 porometer. Transpiration readings were converted to percent of control to compensate for daily differences due to environmental factors like light intensity, humidity, and temperature.

Rutgers tomato seedlings = test: Transpiration rate of Rutgers tomato seedlings after foliar spray (LiCor 1600 porometer); format: in vivo; conditions: for Transpiration rate as a percentage of control, Average of days 1, 2, and 3 after treatment: average of days 1-3
Description: as §1

CC1=CC(=O)CC(C)(C)[C@@]1(O)/C=C/C(C)=C\C(=O)O [abscisic acid, S-(+)-abscisic acid]
solubility in hard water (in words) ([1]; hard water, compared with pure water): even less
highest concentration that can be achieved in pure water ([1]; pure water at room temperature): about 3000 ppm
water solubility ([1]; water at 24° C.): ~3 grams/1000 mL

CC1=CC(=O)CC(C)(C)[C@@]1(O)/C=C/C(C)=C\C(=O)O [ABA, ammonium salt of (S)-(+)-abscisic acid]
Equivalent to s-ABA (ppm) ABA (ppm) (Rutgers Tomato; Rutgers Tomato, regression): 100 ppm
Log[ABA] (Rutgers Tomato; log of equivalent s-ABA ppm): 2.00
(Regression) Calculated Enhancement (Rutgers Tomato; relative to 100 ppm ABA): 1.00
Transpiration rate as a percentage of the transpiration rate of control plants, 1 day after treatment (Rutgers tomato seedlings; 75 ppm spray, 4 ml, 3-4 leaf stage): 91%
Transpiration rate as a percentage of the transpiration rate of control plants, 2 days after treatment (Rutgers tomato seedlings; 75 ppm spray): 94%
Transpiration rate as a percentage of the transpiration rate of control plants, 3 days after treatment (Rutgers tomato seedlings; 75 ppm spray): 72%
Transpiration rate as a percentage of control, Average of days 1, 2, and 3 after treatment (Rutgers tomato seedlings; 75 ppm spray): 86%
Transpiration rate as a percentage of the transpiration rate of control plants, 1 day after treatment (Rutgers tomato seedlings; 250 ppm spray): 72%
Transpiration rate as a percentage of the transpiration rate of control plants, 2 days after treatment (Rutgers tomato seedlings; 250 ppm spray): 102%
Transpiration rate as a percentage of the transpiration rate of control plants, 3 days after treatment (Rutgers tomato seedlings; 250 ppm spray): 75%
Transpiration rate as a percentage of control, Average of days 1, 2, and 3 after treatment (Rutgers tomato seedlings; 250 ppm spray): 83%
Transpiration rate as a percentage of the transpiration rate of control plants, 1 day after treatment (Rutgers tomato seedlings; 750 ppm spray): 60%
Transpiration rate as a percentage of the transpiration rate of control plants, 2 days after treatment (Rutgers tomato seedlings; 750 ppm spray): 83%
Transpiration rate as a percentage of the transpiration rate of control plants, 3 days after treatment (Rutgers tomato seedlings; 750 ppm spray): 68%
Transpiration rate as a percentage of control, Average of days 1, 2, and 3 after treatment (Rutgers tomato seedlings; 750 ppm spray): 70%
Transpiration rate as a percentage of the transpiration rate of control plants, 1 day after treatment (Rutgers tomato seedlings; 2500 ppm spray): 36%
Transpiration rate as a percentage of the transpiration rate of control plants, 2 days after treatment (Rutgers tomato seedlings; 2500 ppm spray): 35%
Transpiration rate as a percentage of the transpiration rate of control plants, 3 days after treatment (Rutgers tomato seedlings; 2500 ppm spray): 43%
Transpiration rate as a percentage of control, Average of days 1, 2, and 3 after treatment (Rutgers tomato seedlings; 2500 ppm spray): 38%
Effect of spraying on transpiration (in words) (Rutgers tomato seedlings; Rutgers tomato seedlings, spray): reduced transpiration in a dose dependant manner
